Consider 6 molecules from patent US20260250322A1, “NEW PEPTIDES AS SELECTIVE IL-23 RECEPTOR INHIBITORS” (SANOFI, priority 2023, published 2026).

Numbered stars: 1 amine (or outer) side, 2 acyl side, 3 side chain; on linkers, the order of the positions; unused ones are H or OH. Bridge positions count the residues as written; N and C are the ends. Square brackets hold non-standard residues; d marks the D form. Primed or numbered codes have the meaning given here. Peptide text beside a SMILES is read from it. Tyr(Me)″ = O-methyl-tyrosine (4-methoxy-phenylalanine), COc1ccc(C[C@H](N[*:1])C(=O)[*:2])cc1; 1Nal = N[C@@H](Cc1cccc2ccccc12)C(=O)O; 2Nal = N[C@@H](Cc1ccc2ccccc2c1)C(=O)O; Cit = NC(=O)NCCC[C@H](N)C(=O)O; Orn = NCCC[C@H](N)C(=O)O; Aib = CC(C)(N)C(=O)O

A short description of data set [1]: Protease stability in simulated intestinal fluids (FaSSIF). It counts as in vitro ADME. To be noted: 37° C.; for FaSSIF 0 (min), remaining percentage of peptide compound: 0 min (set to 100%), 1 μM; for remaining at 1 h, 1 μM / remaining at 2 h, 1 μM / remaining at 4 h, 1 μM: simulated intestinal fluid (FaSSIF), protease stability; for remaining at 1 h, 1 μM: 60 min, read-out: FaSSIF 60 (min), remaining percentage of peptide compound; for remaining at 2 h, 1 μM: 120 min, read-out: FaSSIF 120 (min), remaining percentage of peptide compound; for remaining at 4 h, 1 μM: 240 min, read-out: FaSSIF 240 (min), remaining percentage of peptide compound. The procedure:
Studies were carried out in simulated intestinal fluid (SIF) and simulated gastric fluid (SGF) to evaluate gastric stability of the peptide compounds of the disclosure. […]
Similarly, the term “Pancreatin-SIF” refers to a solution of simulated intestinal fluid containing pancreatin whereas “SIF-media” refers to a solution of simulated intestinal fluid without pancreatin. Pancreatin-SIF was prepared by dissolving 1 mg Pancreatin (MP Biomedicals) in 10 mL SIF media concentrate (ProSense). […]
To 76 μL of the Pepsin-SGF buffer, 4 μL of the 20 µM compound stock solution were added and incubated at 37° C. At each timepoint (0, 60, 120 and 240 minutes) the reaction was quenched with addition of 80 μL Ethanol (0.1% HCOOH). The samples were centrifuged for 20 minutes and an aliquot of the supernatant 100 μL were transferred to a LoBind-MTP plate and analyzed by LCMS/MS. The peak area response was calculated at each time point for each test compound. As internal reference, the peak area response of the same test compound at TO was calculated. The percent remaining at each timepoint was calculated based on the peak area response ratio of the test compound at TO. Time 0 was set to 100%, and all later timepoints were calculated relative to time 0.

For data set [2], the system named is IL-23 induced STAT3 signaling. The experiment in a line: Inhibition of IL-23 induced STAT3 signaling in HEK-Blue IL-23 cells (SEAP reporter). It counts as cell-based. To be noted: human IL-23 0.25 ng/ml, read-out: Inhibition of IL-23 induced pSTAT3 (IC50 nM). In short, it runs like this:
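HEK-Blue IL-23 cells (10,000/well) preincubated 60 min at 37 °C with serially diluted compound, then stimulated overnight with human IL-23 (0.25 ng/ml final). STAT3-driven SEAP in supernatant read with QUANTI-Blue after 45 min at room temperature, OD 620-655 nm; dose-response fitted.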

For a further data set, the target named is T1, human IL-23R (Homo sapiens, UniProt Q5VWK5).
T1 sequence (Q5VWK5 24-355 limits assumed): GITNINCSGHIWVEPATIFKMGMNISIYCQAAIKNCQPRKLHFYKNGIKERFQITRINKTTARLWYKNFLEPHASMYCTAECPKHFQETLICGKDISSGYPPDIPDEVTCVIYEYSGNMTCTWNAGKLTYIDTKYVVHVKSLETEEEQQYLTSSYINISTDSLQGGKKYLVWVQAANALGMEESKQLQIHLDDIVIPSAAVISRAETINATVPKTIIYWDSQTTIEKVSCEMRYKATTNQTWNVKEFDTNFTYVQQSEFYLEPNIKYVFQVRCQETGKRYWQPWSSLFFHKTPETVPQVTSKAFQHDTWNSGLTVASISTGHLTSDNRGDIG
The experiment in a line: Human ELISA IL-23/IL-23R binding inhibition. To be noted: human IL-23 coated, recombinant human IL-23R-Fc chimera. In short, it runs like this: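 Plates coated with human IL-23 at 1 μg/ml overnight at 4° C; serially diluted peptides added with recombinant human IL-23R-Fc at 0.1 μg/ml final, 60 min at RT. Bound receptor detected with anti-human IgG1-HRP and a fluorogenic peroxidase substrate.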
On the technique in general: ELISA stands for enzyme-linked immunosorbent assay.

Data set [3] concerns the target T2, IL-23 receptor on the surface of HEK-Blue IL-23 cells (UniProt Q5VWK5 24-629, limits assumed).
T2 sequence (looked up): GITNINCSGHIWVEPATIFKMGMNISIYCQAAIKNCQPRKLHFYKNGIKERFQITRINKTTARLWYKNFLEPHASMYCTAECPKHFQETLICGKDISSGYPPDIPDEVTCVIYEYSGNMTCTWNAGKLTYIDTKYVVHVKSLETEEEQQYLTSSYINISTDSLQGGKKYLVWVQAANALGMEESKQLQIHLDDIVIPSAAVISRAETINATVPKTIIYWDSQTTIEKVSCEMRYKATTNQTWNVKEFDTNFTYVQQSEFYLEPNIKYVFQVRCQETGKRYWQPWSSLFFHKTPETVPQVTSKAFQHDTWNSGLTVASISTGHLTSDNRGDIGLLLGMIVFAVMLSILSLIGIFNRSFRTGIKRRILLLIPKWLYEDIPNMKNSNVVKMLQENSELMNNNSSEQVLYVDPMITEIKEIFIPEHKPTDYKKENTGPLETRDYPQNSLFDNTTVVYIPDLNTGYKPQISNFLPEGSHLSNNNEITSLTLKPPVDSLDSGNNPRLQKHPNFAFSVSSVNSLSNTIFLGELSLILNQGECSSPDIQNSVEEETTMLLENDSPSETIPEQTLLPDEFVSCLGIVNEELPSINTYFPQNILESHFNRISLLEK
Description: cell-based or functional assay.

For data set [4], the target named is T3, recombinant human IL-23R-Fc chimera (human, UniProt Q5VWK5 24-353, limits assumed).
T3 construct: Recombinant reagent; also called interleukin-23 receptor; not shown: detected with goat anti-hu-IgG1-HRP antibody
T3 sequence (looked up): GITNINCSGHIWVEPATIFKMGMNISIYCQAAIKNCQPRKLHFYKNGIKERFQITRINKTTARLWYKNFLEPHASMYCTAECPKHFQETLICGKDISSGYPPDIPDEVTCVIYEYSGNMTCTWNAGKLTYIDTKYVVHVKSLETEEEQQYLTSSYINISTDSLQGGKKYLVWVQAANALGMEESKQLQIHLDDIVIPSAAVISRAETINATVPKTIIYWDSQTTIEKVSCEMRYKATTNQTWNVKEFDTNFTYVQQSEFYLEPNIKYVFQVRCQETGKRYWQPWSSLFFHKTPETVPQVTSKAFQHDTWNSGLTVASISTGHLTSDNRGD
The experiment in a line: competition ELISA: coated human IL-23, IL-23R-Fc 0.1 ug/ml, peptide titrated. How it is done: Antagonism of peptide compounds for human interleukin-23 receptor inhibitors, was determined by an ELISA assay.
A 384-well plate was coated with 50 μl/well of human IL-23 at a final concentration of 1 μg/ml and incubated overnight at 4° C. The wells were washed 3 times with 80 μl wash buffer and blocked with 80 μl blocking buffer for 60 minutes at room temperature and washed again. 20 μl of serially diluted test peptides was added to each well and subsequently 20 μl of recombinant human IL-23R-Fc chimera at final concentration of 0.1 μg/ml. The plate was incubated for 60 minutes at room temperature. After the wells were washed, bound IL-23R-Fc was detected with goat anti-hu-lgG1-HRP antibody. Signals were visualized with QuantaBlu Fluorogenic Peroxidase Substrate.

As to `COc1ccc(C[C@@H]2NC(=O)[C@H](CCCNC(=N)N)NC(=O)[C@H](CCC(N)=O)NC(=O)[C@H](Cc3c[nH]c4ccccc34)NC(=O)[C@H]([C@@H](C)O)NC(=O)[C@H](CC(N)=O)NC(=O)[C@H](NC(C)=O)CCC(=O)NCCCC[C@@H](C(=O)N[C@@H](CC(N)=O)C(=O)N[C@@H](CC(N)=O)C(N)=O)NC(=O)C(C)(C)NC(=O)[C@H](Cc3cccc4ccccc34)NC2=O)cc1` [compound 11] (Ac-[dE]NTWQRY(Me)[1Nal][Aib]KNN-NH2; lactam 1-10), in data set [1], the “FaSSIF 0 (min), remaining percentage of peptide compound” value (“FaSSIF 0 (min), remaining percentage” below) is reported as 100%; the amount remaining (commonly what is left of the initial amount, in per cent) at 1 h, 1 μM was 4%; the share remaining at 2 h, 1 μM was 7%; the amount remaining at 4 h, 1 μM is 2%. Besides, in data set [2], the IC50 (in general, the concentration that gives 50% inhibition) was 9280 nM.
For the molecule `COc1ccc(C[C@@H]2NC(=O)[C@H](CCCNC(=N)N)NC(=O)[C@H](CCC(N)=O)NC(=O)[C@H](Cc3c[nH]c4ccccc34)NC(=O)[C@H]([C@@H](C)O)NC(=O)[C@H](CC(N)=O)NC(=O)[C@H](NC(C)=O)CC(=O)NCCC[C@@H](C(=O)N[C@@H](CC(N)=O)C(=O)N[C@@H](CC(N)=O)C(N)=O)NC(=O)C(C)(C)NC(=O)[C@H](Cc3ccc4ccccc4c3)NC2=O)cc1` [compound 13] (Ac-[dD]NTWQRY(Me)[2Nal][Aib][Orn]NN-NH2; lactam 1-10), in data set [1], the “FaSSIF 0 (min), remaining percentage” value was 100%; the share remaining at 1 h, 1 μM is 2%; the fraction remaining at 2 h, 1 μM was 0%; the amount remaining at 4 h, 1 μM was 3%. In addition, the IC50 at human IL-23R worked out at 6.24 nM. The IC50 in data set [2] is 1150 nM.
In the case of `COc1ccc(C[C@@H]2NC(=O)[C@H](CCCNC(=N)N)NC(=O)[C@H](CCC(N)=O)NC(=O)[C@H](Cc3c[nH]c4ccccc34)NC(=O)[C@H]([C@@H](C)O)NC(=O)[C@H](CC(N)=O)NC(=O)[C@H](NC(C)=O)CCCCNC(=O)C[C@@H](C(=O)N[C@@H](CC(N)=O)C(=O)N[C@@H](CC(N)=O)C(N)=O)NC(=O)[C@H](CCCNC(N)=O)NC(=O)[C@H](Cc3cccc4ccccc34)NC2=O)cc1` [compound 18] (Ac-[dK]NTWQRY(Me)[1Nal][Cit]DNN-NH2; lactam 1-10), in data set [1], the “FaSSIF 0 (min), remaining percentage” value is 100%; the share remaining at 1 h, 1 μM is 8%; the share remaining at 4 h, 1 μM was 11%. For the same molecule, the IC50 on human IL-23R stood at 11.7 nM. The IC50 in data set [2] is 10000 nM.
With `COc1ccc(C[C@@H]2NC(=O)C(C)(C)NC(=O)[C@H](CCC(N)=O)NC(=O)[C@H](Cc3c[nH]c4ccccc34)NC(=O)[C@H]([C@@H](C)O)NC(=O)[C@H](CC(N)=O)NC(=O)[C@H](NC(C)=O)CCCCNC(=O)C[C@@H](C(=O)N[C@@H](CC(N)=O)C(=O)N[C@@H](CC(N)=O)C(N)=O)NC(=O)C(C)(C)NC(=O)[C@H](Cc3cccc4ccccc34)NC2=O)cc1` [compound 21] (Ac-[dK]NTWQ[Aib]Y(Me)[1Nal][Aib]DNN-NH2; lactam 1-10), in data set [1], the “FaSSIF 0 (min), remaining percentage” value is on record as 100%; the share remaining at 1 h, 1 μM is 96%; the fraction remaining at 2 h, 1 μM is 98%; the amount remaining at 4 h, 1 μM was 95%. Besides, the IC50 on human IL-23R worked out at 16.9 nM. Moreover, the IC50 in data set [2] was determined as 7500 nM.

B1: peptide compound SEQ ID NO: 4 (peptide)
peptide: Ac-[dK]NTWQRY[2Nal][Aib]DNN-NH2
modifications: lactam 1-10
notes: synthetic macrolactam
Regarding B1, in data set [3], the “Inhibition of IL-23 induced pSTAT3 (IC50 nM)” value is 339 nM. The IC50 in data set [4] came out at 1.59 nM.

B2: peptide compound SEQ ID NO: 9 (peptide)
peptide: Ac-KNTWQR[Tyr(Me)″][1Nal][Aib]DNN-NH2
modifications: lactam 1-10
SMILES: COc1ccc(C[C@@H]2NC(=O)[C@H](CCCNC(=N)N)NC(=O)[C@H](CCC(N)=O)NC(=O)[C@H](Cc3c[nH]c4ccccc34)NC(=O)[C@H]([C@@H](C)O)NC(=O)[C@H](CC(N)=O)NC(=O)[C@@H](NC(C)=O)CCCCNC(=O)C[C@@H](C(=O)N[C@@H](CC(N)=O)C(=O)N[C@@H](CC(N)=O)C(N)=O)NC(=O)C(C)(C)NC(=O)[C@H](Cc3cccc4ccccc34)NC2=O)cc1
notes: synthetic macrolactam
With B2, the “Inhibition of IL-23 induced pSTAT3 (IC50 nM)” value in data set [3] turned out to be 1610 nM. The IC50 in data set [4] is 3.55 nM.
